Reference: ChEMBL document CHEMBL1122236, “3'-Amino-2',3'-dideoxyribonucleosides of some pyrimidines: synthesis and biological activities” (1983)
Values after ≈ are worked out from the molar mass of the structure shown. Active and inactive are the calls of the source. The calls are words filed in the database; no cut-off is given here.

What was measured:
[1] = system: Proteus mirabilis; assay: Minimum inhibitory concentration against Proteus mirabilis; format: functional
[2] = system: Salmonella typhimurium; assay: Minimum inhibitory concentration against Salmonella Typhimurium; format: functional, Salmonella enterica subsp. enterica serovar Typhimurium; conditions: Salmonella enterica
[3] = system: L cells; assay: in vitro cytotoxicity against mouse L cells.; format: functional; conditions: L929, read-out: ED50 (the source's name)
[4] = system: Serratia marcescens; assay: Minimum inhibitory concentration against Serratia marcescens; format: functional
[5] = system: Staphylococcus aureus; assay: In vitro minimum inhibitory concentration against Staphylococcus aureus; format: functional
[6] = system: D-38; assay: In vitro cytotoxicity against human D-38 cells.; format: functional; conditions: read-out: ED50 (the source's name)
[7] = system: Pasteurella multocida; assay: Minimum inhibitory concentration against Pasteurella multocida; format: functional
[8] = system: unidentified adenovirus; assay: In vitro antiviral activity against adeno virus using plaque reduction assay.; format: functional; conditions: read-out: ED50 (the source's name)
[9] = system: Klebsiella pneumoniae; assay: Minimum inhibitory concentration against Klebsiella pneumoniae; format: functional
[10] = system: Salmonella; assay: Minimum inhibitory concentration against Salmonella typhi; format: functional, salmonella typhosa
[11] = system: Escherichia coli; assay: Minimum inhibitory concentration against Escherichia coli; format: functional
[12] = system: Proteus vulgaris; assay: Minimum inhibitory concentration against Proteus vulgaris; format: functional
[13] = system: Vibrio cholerae; assay: Minimum inhibitory concentration against Vibrio cholerae; format: functional
[14] = system: Shigella flexneri; assay: Minimum inhibitory concentration against Shigella flexneri; format: functional
[15] = system: Klebsiella aerogenes; assay: Minimum inhibitory concentration against Enterobacter aerogenes; format: functional
[16] = system: Pseudomonas aeruginosa; assay: Minimum inhibitory concentration against Pseudomonas aeruginosa; format: functional
[17] = system: Citrobacter freundii; assay: Minimum inhibitory concentration against Citrobacter freundii; format: functional
[18] = system: Escherichia coli (organism); assay: Minimum inhibitory concentration against Escherichia coli
[19] = system: Candida albicans; assay: Minimum inhibitory concentration against Candida albicans; format: functional
[20] = system: Priestia megaterium; assay: Minimum inhibitory concentration against Bacillus megaterium; format: functional
[21] = system: Streptococcus agalactiae; assay: Minimum inhibitory concentration against Streptococcus agalactiae; format: functional
[22] = system: Streptococcus pyogenes; assay: Minimum inhibitory concentration against Streptococcus pyogenes; format: functional
[23] = system: Enterococcus faecalis; assay: Minimum inhibitory concentration against Streptococcus faecalis; format: functional
[24] = system: P388; assay: Activity against P-388/0 mouse tumor at 675 mg/kg administered three times on days 1, 5, 9 after implantation; Inactive; format: functional, organism-based; design: dose 675 mg/kg

## N[C@H]1C[C@H](n2ccc(=O)[nH]c2=O)O[C@@H]1CO
[1]
  MIC: > 200 µM
[2]
  MIC: > 200 µM
[3]
  EC50: > 100 µM
[4]
  MIC: > 200 µM
[5]
  MIC: > 400 µM
[6]
  EC50: > 100 µM
[7]
  MIC: > 200 µM
[8]
  EC50: > 100 µM
[9]
  MIC: > 200 µM
[10]
  MIC: > 200 µM
[11]
  MIC: > 200 µM
[12]
  MIC: > 200 µM
[13]
  MIC: > 200 µM
[14]
  MIC: > 200 µM
[15]
  MIC: > 200 µM
[16]
  MIC: > 200 µM
[17]
  MIC: > 200 µM

## Nc1ccn([C@H]2C[C@H](N)[C@@H](CO)O2)c(=O)n1
[1]
  MIC: > 200 µM
[2]
  MIC: > 200 µM
[3]
  EC50: 1 µM
[4]
  MIC: > 200 µM
[5]
  MIC: > 400 µM
[6]
  EC50: 3 µM
[7]
  MIC: > 200 µM
[8]
  EC50: > 100 µM
[9]
  MIC: > 200 µM
[10]
  MIC: > 200 µM
[11]
  MIC: > 200 µM
[12]
  MIC: > 200 µM
[13]
  MIC: > 200 µM
[14]
  MIC: > 200 µM
[15]
  MIC: > 200 µM
[16]
  MIC: > 200 µM
[17]
  MIC: > 200 µM

## NC1CC(n2cc(I)c(=O)[nH]c2=O)OC1CO (stereo not given)
[1]
  MIC: > 200 µM
[2]
  MIC: > 200 µM
[3]
  EC50: > 100 µM
[4]
  MIC: > 200 µM
[5]
  MIC: > 400 µM
[6]
  EC50: > 100 µM
[7]
  MIC: > 200 µM
[8]
  EC50: > 100 µM
[9]
  MIC: > 200 µM
[10]
  MIC: > 200 µM
[11]
  MIC: > 200 µM
[12]
  MIC: > 200 µM
[13]
  MIC: > 200 µM
[14]
  MIC: > 200 µM
[15]
  MIC: > 200 µM
[16]
  MIC: > 200 µM
[17]
  MIC: > 200 µM

## NC1CC(n2cc(Cl)c(=O)[nH]c2=O)OC1CO (stereo not given)
[1]
  MIC: > 200 µM
[2]
  MIC: > 200 µM
[3]
  EC50: 100 µM
[4]
  MIC: > 200 µM
[5]
  MIC: > 200 µM
[6]
  EC50: > 100 µM
[7]
  MIC: > 200 µM
[8]
  EC50: 100 µM
[9]
  MIC: > 200 µM
[10]
  MIC: > 200 µM
[11]
  MIC: > 200 µM
[12]
  MIC: > 200 µM
[13]
  MIC: > 200 µM
[14]
  MIC: > 200 µM
[15]
  MIC: > 200 µM
[16]
  MIC: > 200 µM
[17]
  MIC: > 200 µM

## NC1CC(n2cc(Br)c(=O)[nH]c2=O)OC1CO (stereo not given)
[1]
  MIC: > 200 µM
[2]
  MIC: > 200 µM
[3]
  EC50: > 100 µM
[4]
  MIC: > 200 µM
[5]
  MIC: > 400 µM
[6]
  EC50: > 100 µM
[7]
  MIC: > 200 µM
[8]
  EC50: 100 µM
[9]
  MIC: > 200 µM
[10]
  MIC: > 200 µM
[11]
  MIC: > 200 µM
[12]
  MIC: > 200 µM
[13]
  MIC: > 200 µM
[14]
  MIC: > 200 µM
[15]
  MIC: > 200 µM
[16]
  MIC: > 200 µM
[17]
  MIC: > 200 µM

## Cc1cn([C@H]2C[C@H](N)[C@@H](CO)O2)c(=O)[nH]c1=O [3-AMINO- 3-DEOXYTHYMIDINE]
[1]
  MIC: > 200 µM
[2]
  MIC: > 200 µM
[3]
  EC50: 3 µM
[4]
  MIC: > 200 µM
[5]
  MIC: > 400 µM
[6]
  EC50: 100 µM
[7]
  MIC: > 200 µM
[8]
  EC50: > 100 µM
[9]
  MIC: > 200 µM
[10]
  MIC: > 200 µM
[11]
  MIC: > 200 µM
[12]
  MIC: > 200 µM
[13]
  MIC: > 200 µM
[14]
  MIC: > 200 µM
[15]
  MIC: > 200 µM
[16]
  MIC: > 200 µM
[17]
  MIC: > 200 µM

## NC1CC(n2cc(F)c(=O)[nH]c2=O)OC1CO (stereo not given)
[1]
  MIC: > 200 µM
[2]
  MIC: > 200 µM
[3]
  EC50: 100 µM
[4]
  MIC: > 200 µM
[5]
  MIC: 4 µM (≈ 0.981 µg/mL)
[18]
  MIC: > 200 µM
[19]
  MIC: > 200 µM
[6]
  EC50: > 100 µM
[7]
  MIC: > 200 µM
[8]
  EC50: 10 µM
[9]
  MIC: > 200 µM
[20]
  MIC: 40 µM (≈ 9.81 µg/mL)
[21]
  MIC: 20 µM (≈ 4.9 µg/mL)
[10]
  MIC: > 200 µM
[22]
  MIC: > 200 µM
[12]
  MIC: > 200 µM
[13]
  MIC: > 200 µM
[23]
  MIC: 20 µM (≈ 4.9 µg/mL)
[14]
  MIC: > 200 µM
[15]
  MIC: > 200 µM
[16]
  MIC: > 200 µM
[17]
  MIC: > 200 µM
[24]
  Activity: inactive
